# Data taken from patent publication US12497394B2, “Fused-cyclic pyrazolone formamide compound and preparation method therefor, pharmaceutical composition and use thereof” (SHANGHAI INSTITUTE OF MATERIA MEDICA, CHINESE ACADEMY OF …, priority 2018, dated 2025).
# Biological target: T1, receptor tyrosine kinase AXL (Homo sapiens, UniProt P30530)
# T1 construct: 50 μL of AXL kinase domain recombinant protein diluted in reaction buffer was added to start the reaction; made in house; host or cells: insect cells (baculovirus expression system)
# T1 sequence (P30530 536-807 limits assumed): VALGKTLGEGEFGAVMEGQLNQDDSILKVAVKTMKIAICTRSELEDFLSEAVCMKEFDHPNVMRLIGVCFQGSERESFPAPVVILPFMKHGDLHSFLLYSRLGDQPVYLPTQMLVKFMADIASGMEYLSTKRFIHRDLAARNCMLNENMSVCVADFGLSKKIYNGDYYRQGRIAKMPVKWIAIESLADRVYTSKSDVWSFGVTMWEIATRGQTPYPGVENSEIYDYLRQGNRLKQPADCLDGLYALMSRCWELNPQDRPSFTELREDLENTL
# Assay: Enzyme activity of receptor tyrosine kinase AXL (ELISA)
# Format: biochemical
# Details: for inhibition at 0.001 µM: 1 nM; for inhibition at 0.001 µM / inhibition at 0.01 µM / inhibition at 0.1 µM / inhibition at 1 µM: read-out: AXL activity Inhibitory rate(%); for inhibition at 0.01 µM: 10 nM; for inhibition at 0.1 µM: 100 nM; for inhibition at 1 µM: 1000 nM; for AXL activity (in words): at 1000, 100, and 10 nM
# Experimental: Detection method: Enzyme-linked immunosorbent assay (ELISA)
# Tested receptor tyrosine kinase: AXL
# The full-wavelength microplate reader for experiment reading was a product of Molecular Device, model: SpectraMax 190; the experiment water was distilled water produced by Sinopharm Group.
# Compound preparation: The compounds were centrifuged at 12,000 g for 5 min, and DMSO was added to prepare a 10^−2M stock solution, vortexed evenly and sonicated for 10 min for use, and stored at −40° C. During the test, the compound was diluted from the stock solution to 100 times the tested concentration with DMSO (the DMSO concentration in the system was 1%).
# 1. […] Discard the liquid from the well. The plate was washed and washed three times with T-PBS (0.1% Tween-20 in potassium-free PBS, 200 μL/well) for 5 minutes each time.
# 2. 49 μL of ATP solution diluted with reaction buffer (50 mM HEPES pH 7.4, 50 mM MgCl2, 0.5 mM MnCl2, 0.2 mM Na3VO4, 1 mM DTT) was added to each well, and […] of the tested compound was added to each well, and then 50 μL of AXL kinase domain recombinant protein diluted in reaction buffer was added to start the reaction. Two control wells without ATP were added in each experiment. (100 rpm) Reacted in 37° C. shaker for 1 hour. Discard the liquid from the well, and the plate was washed with T-PBS for three times.
# 3. […] Discard the liquid from the well, and the plate was washed with T-PBS for three times.
# 4. The horseradish peroxidase-labeled goat anti-mouse second antibody dilution (antibody diluted 1:2000 with BSA 5 mg/mL in T-PBS), 100 μL/well, and reacted in 37° C. shaker for 0.5 hours. Discard the liquid from the well, and the plate was washed with T-PBS for three times.
# 6. The reaction was quenched with 50 μL/well 2M […], and read at 490 nm using a tunable microplate reader VERSAmax.
# The IC50 values were obtained by four-parameter regression analysis using the software supplied with the microplate reader.
inhibition at 0.001 µM,inhibition at 0.01 µM,inhibition at 0.1 µM,inhibition at 1 µM,AXL activity (in words),SMILES
21.1%,62.9%,92.7%,,,"COCCOc1cc2ncnc(Oc3ccc(NC(=O)c4c5n(n(-c6ccccc6F)c4=O)CCCC5)cc3Cl)c2cc1OCCOC [DC621090, N-(4-((6,7-bis(2-methoxyethoxy)quinazolin-4-yl)oxy)-3-chlorophenyl)-1-(2-fluorophenyl)-2-oxo-1,2,4,5,6,7-hexahydropyrazolo[1,5-a]pyridine-3-formamide]"
2.4%,60.5%,91.1%,,,"COCCOc1cc2ncnc(Oc3ccc(NC(=O)c4c5n(n(-c6ccccc6)c4=O)CCCC5)cc3Cl)c2cc1OCCOC [DC621070, N-(4-((6,7-bis(2-methoxyethoxy)quinazolin-4-yl)oxy)-3-chlorophenyl)-2-oxo-1-phenyl-1,2,4,5,6,7-hexahydropyrazolo[1,5-a]pyridine-3-formamide]"
30.8%,47.4%,83.4%,,,"O=C(Nc1ccc(Oc2ncnc3cc4c(cc23)OCCOCCOCCO4)c(Cl)c1)c1c2n(n(-c3cc(F)ccc3F)c1=O)CCCC2 [DC621064, 1-(2,5-difluorophenyl)-N-(3-chloro-4-((7,8,10,11,13,14-hexahydro-[1,4,7,10]tetraoxacyclododecane [2,3-g]quinazolin-4-yl)oxy)phenyl)-2-oxo-1,2,4,5,6,7-hexahydropyrazolo[1,5-a]pyridine-3-formamide]"
,-15.5%,2.8%,-7.2%,almost no activity,"COc1nc(OC)nc(Oc2ccc(NC(=O)c3c4n(n(-c5ccccc5)c3=O)CCCC4)cc2)n1 [DC621003, N-(4-((4,6-dimethoxy-1,3,5-triazine-2-yl)oxy)phenyl)-2-oxo-1-phenyl-1,2,4,5,6,7-hexahydro[1,5-a]pyridine-3-formamide, reference compound]"
16.3%,34.9%,79.2%,,,"COc1cc2ncnc(Oc3ccc(NC(=O)c4c5n(n(-c6cc(F)ccc6F)c4=O)CCCC5)cc3C(F)(F)F)c2cc1OC [DC621081, 1-(2,5-difluorophenyl)-N-(4-((6,7-dimethoxyquinazoline-4-yl)oxy)-3-trifluoromethylphenyl)-2-oxo-1,2,4,5,6,7-hexahydropyrazolo[1,5-a]pyridine-3-formamide]"
,-14.6%,18.3%,-7.8%,almost no activity,"Cc1nccc(Oc2ccc(NC(=O)c3c4n(n(-c5ccccc5)c3=O)CCCC4)cc2)n1 [DC621005, N-(4-((2-methylpyrimidine-4-yl)oxy)phenyl)-2-oxo-1-phenyl-1,2,4,5,6,7-hexahydro[1,5-a]pyridine-3-formamide, reference compound]"
29.6%,45.8%,95%,,,"O=C(Nc1ccc(Oc2ncnc3cc4c(cc23)OCCOCCOCCO4)c(F)c1)c1c2n(n(-c3ccccc3F)c1=O)CCCC2 [DC621065, N-(3-fluoro-4-((7,8,10,11,13,14-hexahydro-[1,4,7,10]tetraoxacyclododecane [2,3-g]quinazolin-4-yl)oxy)phenyl)-1-(2-fluorophenyl)-2-oxo-1,2,4,5,6,7-hexahydropyrazolo[1,5-a]pyridine-3-formamide]"
